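Briefly, cells in 96-well plates were exposed to five compound concentrations for 48 h, and endpoints were estimated by linear interpolation. Abbreviation: GI50, concentration required for 50% inhibition of growth.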 Activity calls are given as the source filed them. Cut-off read from the data, not from the text of the source: active = GI50 up to about 1.1 µM and inactive = higher.
Tests used:
Assay in all cases: DTP human tumour cell line panel, 48 h
A498 = tested on: A498
NCI-H460 = tested on: NCI-H460
SK-MEL-2 = tested on: SK-MEL-2
Malme-3M = tested on: Malme-3M
SR = tested on: SR
SF-295 = tested on: SF-295
RXF 393 = tested on: RXF 393
Hs-578T = tested on: Hs-578T
LOX IMVI = tested on: LOX IMVI
TK-10 = tested on: TK-10
BT-549 = tested on: BT-549
HCT-15 = tested on: HCT-15
UACC-257 = tested on: UACC-257
K562 = tested on: K562
DU-145 = tested on: DU-145
RPMI-8226 = tested on: RPMI-8226
PC-3 = tested on: PC-3
HT-29 = tested on: HT-29
U-251 = tested on: U-251
SNB-75 = tested on: SNB-75
IGROV-1 = tested on: IGROV-1
UO-31 = tested on: UO-31
UACC-62 = tested on: UACC-62
NCI-H226 = tested on: NCI-H226
CAKI-1 = tested on: CAKI-1
786-0 = tested on: 786-0
ACHN = tested on: ACHN
EKVX = tested on: EKVX
SF-268 = tested on: SF-268
OVCAR-8 = tested on: OVCAR-8
SW-620 = tested on: SW-620
T47D = tested on: T47D
HL-60 = tested on: HL-60
CCRF-CEM = tested on: CCRF-CEM
NCI-H23 = tested on: NCI-H23
MOLT-4 = tested on: MOLT-4
SK-MEL-5 = tested on: SK-MEL-5
HCT-116 = tested on: HCT-116
MDA-MB-231 = tested on: MDA-MB-231
A549 = tested on: A549
SK-MEL-28 = tested on: SK-MEL-28
SF-539 = tested on: SF-539
HCC 2998 = tested on: HCC 2998
MCF7 = tested on: MCF7
OVCAR-3 = tested on: OVCAR-3
MDA-MB-435 = tested on: MDA-MB-435
OVCAR-4 = tested on: OVCAR-4
SK-OV-3 = tested on: SK-OV-3
M14 = tested on: M14
KM12 = tested on: KM12
OVCAR-5 = tested on: OVCAR-5
NCI/ADR-RES = tested on: NCI/ADR-RES
COLO 205 = tested on: COLO 205
HOP-92 = tested on: HOP-92
SNB-19 = tested on: SNB-19
HOP-62 = tested on: HOP-62
NCI-H522 = tested on: NCI-H522
MDA-N = tested on: MDA-N
SN12C = tested on: SN12C

For `CCOC(=O)C1(Cc2c[nH]c3ccccc23)C(O)CCCN1C(C)=O` (stereo not given), the GI50 (A498) was > 100 µM (inactive), the GI50 (NCI-H460) was > 100 µM (inactive) and the GI50 (SK-MEL-2) was > 100 µM (inactive). The GI50 (Malme-3M) was > 100 µM (inactive), the GI50 (SR) was 81.5 µM (inactive) and the GI50 (SF-295) was > 100 µM (inactive). For the same compound, the GI50 (RXF 393) was > 100 µM (inactive), the GI50 (Hs-578T) was > 100 µM (inactive) and the GI50 (LOX IMVI) was > 100 µM (inactive). The GI50 (TK-10) was > 100 µM (inactive), the GI50 (BT-549) was > 100 µM (inactive) and the GI50 (HCT-15) was > 100 µM. The GI50 (UACC-257) was > 100 µM (inactive), the GI50 (K562) was > 100 µM (inactive) and the GI50 (DU-145) was > 100 µM (inactive). The GI50 (RPMI-8226) was > 100 µM (inactive), the GI50 (PC-3) was > 100 µM (inactive) and the GI50 (HT-29) was > 100 µM (inactive). For the same compound, the GI50 (U-251) was > 100 µM (inactive), the GI50 (SNB-75) was > 100 µM (inactive) and the GI50 (IGROV-1) was > 100 µM (inactive). For the same compound, the GI50 (UO-31) was > 100 µM (inactive), the GI50 (UACC-62) was > 100 µM (inactive) and the GI50 (NCI-H226) was > 100 µM (inactive). For the same compound, the GI50 (CAKI-1) was > 100 µM (inactive), the GI50 (786-0) was > 100 µM (inactive) and the GI50 (ACHN) was > 100 µM (inactive). The GI50 (EKVX) was > 100 µM (inactive), the GI50 (SF-268) was > 100 µM (inactive) and the GI50 (OVCAR-8) was > 100 µM (inactive). For the same compound, the GI50 (SW-620) was > 100 µM (inactive), the GI50 (T47D) was > 100 µM (inactive) and the GI50 (HL-60) was > 100 µM (inactive). For the same compound, the GI50 (CCRF-CEM) was > 100 µM (inactive), the GI50 (NCI-H23) was > 100 µM (inactive) and the GI50 (MOLT-4) was > 100 µM (inactive). For the same compound, the GI50 (SK-MEL-5) was > 100 µM (inactive), the GI50 (HCT-116) was > 100 µM (inactive) and the GI50 (MDA-MB-231) was > 100 µM (inactive). For the same compound, the GI50 (A549) was > 100 µM (inactive), the GI50 (SK-MEL-28) was > 100 µM (inactive) and the GI50 (SF-539) was > 100 µM (inactive). For the same compound, the GI50 (HCC 2998) was > 100 µM (inactive), the GI50 (MCF7) was > 100 µM (inactive) and the GI50 (OVCAR-3) was > 100 µM (inactive). The GI50 (MDA-MB-435) was > 100 µM (inactive), the GI50 (OVCAR-4) was > 100 µM (inactive) and the GI50 (SK-OV-3) was > 100 µM (inactive). The GI50 (M14) was > 100 µM (inactive), the GI50 (KM12) was > 100 µM (inactive) and the GI50 (OVCAR-5) was > 100 µM (inactive). For the same compound, the GI50 (NCI/ADR-RES) was > 100 µM (inactive), the GI50 (COLO 205) was > 100 µM (inactive) and the GI50 (HOP-92) was > 100 µM (inactive). The GI50 (SNB-19) was > 100 µM (inactive) and the GI50 (HOP-62) was > 100 µM (inactive).

With `CCCCSc1nsc(N(C(=O)c2ccccc2)C(=O)c2ccccc2)n1` the GI50 (A498) was 31.5 µM (inactive), the GI50 (NCI-H460) was 27.5 µM (inactive) and the GI50 (SK-MEL-2) was 26.4 µM (inactive). The GI50 (Malme-3M) was 26.9 µM (inactive), the GI50 (SR) was 21.6 µM (inactive) and the GI50 (SF-295) was 32.7 µM (inactive). The GI50 (RXF 393) was 32.3 µM (inactive), the GI50 (Hs-578T) was 31.2 µM (inactive) and the GI50 (LOX IMVI) was 26.9 µM (inactive). For the same compound, the GI50 (TK-10) was 36.4 µM (inactive), the GI50 (BT-549) was 29.1 µM (inactive) and the GI50 (HCT-15) was 30.3 µM. The GI50 (UACC-257) was 27.3 µM (inactive), the GI50 (K562) was 29.7 µM (inactive) and the GI50 (DU-145) was 33.8 µM (inactive). For the same compound, the GI50 (RPMI-8226) was 21.6 µM (inactive), the GI50 (PC-3) was 33.5 µM (inactive) and the GI50 (HT-29) was 29.8 µM (inactive). For the same compound, the GI50 (U-251) was 32.4 µM (inactive), the GI50 (SNB-75) was 25.1 µM (inactive) and the GI50 (IGROV-1) was 41.1 µM (inactive). For the same compound, the GI50 (UO-31) was 19.5 µM (inactive), the GI50 (UACC-62) was 23.4 µM (inactive) and the GI50 (NCI-H522) was 25.4 µM (inactive). For the same compound, the GI50 (NCI-H226) was 29.7 µM (inactive), the GI50 (CAKI-1) was 36.5 µM (inactive) and the GI50 (786-0) was 32 µM (inactive). The GI50 (ACHN) was 49.1 µM (inactive), the GI50 (EKVX) was 27.5 µM (inactive) and the GI50 (SF-268) was 35.8 µM (inactive). The GI50 (OVCAR-8) was 34.8 µM (inactive), the GI50 (SW-620) was 41.4 µM (inactive) and the GI50 (T47D) was 37.9 µM (inactive). The GI50 (HL-60) was 28.1 µM (inactive), the GI50 (CCRF-CEM) was 35.8 µM (inactive) and the GI50 (NCI-H23) was 30.1 µM (inactive). The GI50 (MOLT-4) was 24.2 µM (inactive), the GI50 (SK-MEL-5) was 18.8 µM (inactive) and the GI50 (HCT-116) was 28.8 µM (inactive). The GI50 (MDA-N) was 30.9 µM (inactive), the GI50 (A549) was 36.5 µM (inactive) and the GI50 (SK-MEL-28) was 40.2 µM (inactive). For the same compound, the GI50 (SF-539) was 25.1 µM (inactive), the GI50 (HCC 2998) was 25.5 µM (inactive) and the GI50 (MCF7) was 32.2 µM (inactive). The GI50 (OVCAR-3) was 23.7 µM (inactive), the GI50 (MDA-MB-435) was 33.7 µM (inactive) and the GI50 (OVCAR-4) was 57.5 µM (inactive). For the same compound, the GI50 (SK-OV-3) was 31.4 µM (inactive), the GI50 (SN12C) was 29.2 µM (inactive) and the GI50 (M14) was 29 µM (inactive). The GI50 (KM12) was 33.5 µM (inactive), the GI50 (OVCAR-5) was 26.5 µM (inactive) and the GI50 (NCI/ADR-RES) was 31.6 µM (inactive). For the same compound, the GI50 (COLO 205) was 20.4 µM (inactive), the GI50 (HOP-92) was 26.2 µM (inactive) and the GI50 (SNB-19) was 45.5 µM (inactive). The GI50 (HOP-62) was 34 µM (inactive).

With `Cc1ccc(C2(N3CCCC3)OC(C)(C)c3cccc4cccc2c34)cc1` (stereo not given) the GI50 (A498) was 16.2 µM (inactive), the GI50 (NCI-H460) was 13.5 µM (inactive) and the GI50 (SK-MEL-2) was 14.7 µM (inactive). The GI50 (Malme-3M) was 18.1 µM (inactive), the GI50 (SR) was 23.2 µM (inactive) and the GI50 (SF-295) was 14.5 µM (inactive). For the same compound, the GI50 (RXF 393) was 13.5 µM (inactive), the GI50 (Hs-578T) was 15.6 µM (inactive) and the GI50 (LOX IMVI) was 15.7 µM (inactive). The GI50 (TK-10) was 16.8 µM (inactive), the GI50 (BT-549) was 15.7 µM (inactive) and the GI50 (HCT-15) was 15.6 µM. For the same compound, the GI50 (UACC-257) was 16.9 µM (inactive), the GI50 (K562) was 22.3 µM (inactive) and the GI50 (DU-145) was 16.9 µM (inactive). For the same compound, the GI50 (RPMI-8226) was 22.3 µM (inactive), the GI50 (PC-3) was 15.4 µM (inactive) and the GI50 (HT-29) was 13.4 µM (inactive). The GI50 (U-251) was 16 µM (inactive), the GI50 (SNB-75) was 13.5 µM (inactive) and the GI50 (IGROV-1) was 15.9 µM (inactive). The GI50 (UO-31) was 15.1 µM (inactive), the GI50 (UACC-62) was 13.7 µM (inactive) and the GI50 (NCI-H522) was 12.9 µM (inactive). The GI50 (NCI-H226) was 15.3 µM (inactive), the GI50 (CAKI-1) was 15.7 µM (inactive) and the GI50 (786-0) was 18.7 µM (inactive). The GI50 (ACHN) was 15.8 µM (inactive), the GI50 (EKVX) was 11.4 µM (inactive) and the GI50 (SF-268) was 12.9 µM (inactive). The GI50 (OVCAR-8) was 15.2 µM (inactive), the GI50 (SW-620) was 16 µM (inactive) and the GI50 (T47D) was 16.3 µM (inactive). The GI50 (HL-60) was 30.8 µM (inactive), the GI50 (CCRF-CEM) was 41.1 µM (inactive) and the GI50 (NCI-H23) was 16.2 µM (inactive). For the same compound, the GI50 (MOLT-4) was 20.7 µM (inactive), the GI50 (SK-MEL-5) was 15 µM (inactive) and the GI50 (HCT-116) was 15.6 µM (inactive). The GI50 (MDA-N) was 16.2 µM (inactive), the GI50 (A549) was 11 µM (inactive) and the GI50 (SF-539) was 16.9 µM (inactive). For the same compound, the GI50 (MCF7) was 17.1 µM (inactive), the GI50 (OVCAR-3) was 14.9 µM (inactive) and the GI50 (MDA-MB-435) was 14.8 µM (inactive). For the same compound, the GI50 (OVCAR-4) was 14.5 µM (inactive), the GI50 (SK-OV-3) was 15.6 µM (inactive) and the GI50 (SN12C) was 17.5 µM (inactive). The GI50 (M14) was 17.4 µM (inactive), the GI50 (KM12) was 27.9 µM (inactive) and the GI50 (OVCAR-5) was 15.8 µM (inactive). The GI50 (NCI/ADR-RES) was 15 µM (inactive), the GI50 (COLO 205) was 15.6 µM (inactive) and the GI50 (HOP-92) was 1.48 µM (inactive). The GI50 (SNB-19) was 16.3 µM (inactive) and the GI50 (HOP-62) was 16 µM (inactive).

Source: ChEMBL document CHEMBL1201862, “PubChem BioAssay data set” (2004)
